Where “and” joins values, the source holds several entries; their conditions need not be identical. Equal values may be shown once.
Legend:
patients with PNH [1] = experiment: PEGASUS Phase 3 trial, 16-week randomized controlled period: hematologic and fatigue efficacy endpoints; assay type: in vivo, human; conditions: for non-inferiority to eculizumab on absolute reticulocyte count / non-inferiority to eculizumab on transfusion avoidance: key secondary endpoint; for non-inferiority to eculizumab on absolute reticulocyte count: margin 10; for non-inferiority to eculizumab on transfusion avoidance: margin -20%
Text: The PEGASUS trial protocol consisted of an 8-week screening period, a 52-week treatment period, and a 12-week follow up period.
The treatment period consisted of three parts: a 4-week run-in period, a 16-week Randomized Controlled Period and a 32-week open-label Study Drug only period.
During the Randomized Controlled Period, subjects returned to the clinical site at Weeks 1, 2, 4, 6, 8, 12 and 16 for efficacy and safety assessments.
The primary endpoint in the study was an increase in hemoglobin level from baseline to Week 16 (excluding data before the Randomized Controlled Period). Key secondary endpoints included transfusion avoidance, reduction in reticulocyte count, reduction in LDH level, and changes in Functional Assessment of Chronic Illness Therapy (FACIT)-fatigue scale score, Version 4. […] Hierarchical significance testing for secondary efficacy endpoints was gated on the success of the primary efficacy endpoint. Post hoc analyses included hemoglobin stabilization (defined as avoidance of a >1 g/dL decrease from baseline) in the absence of transfusions and hematologic response to treatment.
The between-treatment group comparison for the primary efficacy endpoint was performed using a mixed effect model for repeated measures (MMRM) (Mallinckrodt, DID 42:30 (2008)). The model included fixed categorical effects for treatment group, study visit, stratification variables (based on transfusion history and platelet count) and the study visit-bytreatment group interaction, as well as the continuous, fixed covariate of baseline Hb level.
The number and percentage of subjects with transfusion avoidance were tabulated by treatment group and compared between treatment groups using a stratified Cochran-Mantel Haenszel (CMH) chi-square test. The treatment difference in percentages and 95% confidence interval for the difference were presented using the stratified method (Miettinen, Statistics in Medicine 4:213-226 (1985)).
The change from baseline at Week 16 in reticulocyte count, LDH level and FACIT-fatigue scale score were analyzed using the same methods described for the primary analysis of the primary efficacy endpoint except using their own baseline as a covariate, using the ITT and mITT sets.
For any subject who discontinued study treatment, any values collected after discontinuation continued to be used in analyses (Treatment Policy).
Additionally, the primary endpoint of hemoglobin change from baseline (before first dose of pegcetacoplan) to week 16 and secondary endpoints (transfusion avoidance, change from baseline at week 16 in absolute reticulocyte count and lactate dehydrogenase) were analyzed by subgroups based on number of packed red blood cell transfusions (<4 vs ≥4) within the 12 months prior to Day -28 and platelet count at screening (<100,000 /mm^3 vs >100,000 /mm^3).

PNH Type II + III RBCs = experiment: PEGASUS pharmacodynamics: C3 loading and clone size of PNH red blood cells; assay type: in vivo, human; conditions: week 16 versus baseline
Text: FIGS. 9B and 9C includes descriptive analysis of observed values, based only on those subjects who had both baseline and week 16 data.

[2] = tested on: patients with PNH previously treated with eculizumab; experiment: Matching-adjusted indirect comparison of pegcetacoplan (PEGASUS) versus ravulizumab (302 study); assay type: in vivo, human; conditions: PEGASUS Week 16 vs 302 study Week 26, after matching
Text: Both studies share similar eligibility criteria. However, PEGASUS also required patients to have hemoglobin <10.5 g/dL and absolute reticulocyte count >1.0x the upper limit of normal; these criteria were not applicable in the 302 study. To adjust for cross-study differences in baseline characteristics, propensity score weighting was utilized to balance baseline demographic and clinical characteristics. Outcomes assessed included: transfusion avoidance, total number of units of packed red blood cells (PRBCs) transfused, hemoglobin stabilization, and change in Functional Assessment of Chronic Illness Therapy (FACIT)-Fatigue score. Outcomes were assessed from PEGASUS at Week 16 and from the 302 study at Week 26. Unadjusted mean and least squares mean change in FACIT-Fatigue score were compared for PEGASUS and the 302 study, respectively. Weighted Wald tests and 95% confidence intervals (CIs) were computed for comparisons of categorical and continuous outcomes (i.e., chi square and z tests, respectively).

patients with PNH [3] = conditions: in vivo
Procedure: (§1) Pharmacokinetics and pharmacodynamics were also assessed, including change from baseline in percentage of PNH Type II + III RBCs at week 16, and change from baseline in percentage of PNH Type II + III RBCs opsonized with C3 at week 16. Incidence and severity of treatment-emergent adverse events (TEAEs), incidence of thromboembolic events, changes from baseline in laboratory parameters, and changes from baseline in electrocardiogram (ECG) parameters were also assessed.
(§2) The primary endpoint was assessed on ITT set (included all subjects who were randomized), and change from Baseline to Week 16 in Hb level was measured. […] Safety Analysis was conducted in the safety set (which included all subjects who were randomized and received at least 1 dose of monotherapy Study Drug).
(§3) Subjects were divided into various sets. The Run-in Set included all subjects who received at least one dose of APL-2. The Intent-to-Treat (ITT) Set included all subjects who were randomized. The analyses using this set was based upon the randomized treatment group allocated. The Safety Set included all subjects who were randomized and received at least 1 dose of monotherapy Study Drug. This set was used for safety analyses. The analyses using this set were based upon the actual treatment received. The Modified ITT (mITT) Set included all subjects in the ITT set who received at least one dose of monotherapy beyond their Week 4 after randomization in the Randomized Controlled Period. The analyses using this set were based upon the randomized treatment group allocated. […] Subjects were required to receive their randomized treatment to be included in the set and so analyses using this set were by default based upon the actual treatment group allocated. The Completer Set consisted of all subjects in the ITT set who completed the Week 16 efficacy assessment for the study. The analyses using this set were based upon the randomized treatment group allocated.

patients with PNH [4] = experiment: PEGASUS 48-week safety; conditions: 48-week study
patients with PNH [5] = experiment: PEGASUS safety, 16-week randomized controlled period
Procedure: as §1, §2, §3

[6] = week 16, <4 transfusions stratum
[7] = week 16, <100,000 /mm^3 platelet stratum
[8] = week 16, censored for transfusion
[9] = week 16, ≥4 transfusions stratum
[10] = week 16, ≥100,000 /mm^3 platelet stratum
[11] = 16-week randomized, controlled treatment period

In the case of “Poly(oxy-1,2-ethanediyl), α-hydro-ω-hydroxy-, 15,15ʹ -diester with N-acetyl-L-isoleucyl-L-cysteinyl-L-valyl-1-methyl-L-tryptophyl-L-glutaminyl-L-α-aspartyl-L-tryptophylglycyl-L-alanyl-L-histidyl-L-arginyl-L-cysteinyl-L-threonyl-2-[2-(2-aminoethoxy)ethoxy]acetyl-N^6-carboxy-L-lysinamide cyclic (2-->12)-(disulfide) [pegcetacoplan]”, the “patients achieving at least a three-point improvement in FACIT-fatigue score” value (patients with PNH [1]; 16 weeks) is reported as 73%, the “patients achieving reticulocyte normalization” value (patients with PNH [1]; 16 weeks, 30-120 × 10^9 cells/L) is reported as 78% and the “patients achieving LDH normalization” value (patients with PNH [1]; 16 weeks, normal range 113-226 U/L) is reported as 71%. For the same substance, the “transfusion avoidance, adjusted risk difference versus eculizumab” value (patients with PNH [1]; <4 transfusions group, 95% CI 26.2%-81.3%) was 53.8%, the “FACIT-fatigue score, adjusted mean change from baseline to Week 16” value (patients with PNH [1]; MMRM) was 9.2 and the “absolute reticulocyte count, adjusted mean decrease from baseline to week 16” value (patients with PNH [1]; baseline 217×10^9 /L) was 1.35e+11 L⁻¹. For the same substance, the “non-inferiority to eculizumab on absolute reticulocyte count” value (patients with PNH [1]) was “Non-inferiority was met”, the “non-inferiority to eculizumab on absolute reticulocyte count” value (patients with PNH [1]; listed as Pegcetacoplan) was “met non-inferiority” and the “non-inferiority to eculizumab on transfusion avoidance” value (patients with PNH [1]) was “Non-inferiority was met”. The “non-inferiority to eculizumab on transfusion avoidance” value (patients with PNH [1]; listed as Pegcetacoplan) was “met non-inferiority”, the “subjects who required transfusions post randomization” value (patients with PNH [1]; out of 41 (pegcetacoplan group), out of 39 (eculizumab group)) was 6 subjects and the “proportion of transfusion-free patients” value (patients with PNH [1]; over 16 weeks, <4 transfusions within 12 months prior to Day -28) was 85%. The “transfusion avoidance (transfusion-free patients)” value (patients with PNH [1]; over 16 weeks, all patients) was 85.4% and 85%, the “proportion of transfusion-free patients” value (patients with PNH [1]; over 16 weeks, platelet stratum <100,000 /mm^3) was 83.3% and the “proportion of transfusion-free patients” value (patients with PNH [1]; over 16 weeks, platelet stratum ≥100,000 /mm^3) was 86.2%. The “proportion of transfusion-free patients” value (patients with PNH [1]; over 16 weeks, ≥4 transfusions within 12 months prior to Day -28) was 85.7% and 86%, the “transfusion avoidance, adjusted risk difference versus eculizumab” value (patients with PNH [1]; overall patients, 95% CI 48.3%-76.8%) was 62.5% and the “hemoglobin higher than the eculizumab arm” value (patients with PNH [1]; week 16) was 53%. For the same substance, the “mean hemoglobin change from baseline regardless of baseline platelet count strata” value (patients with PNH [1]; week 16) was “significantly increased”, the “LDH LS mean change from baseline” value (patients with PNH [1]; [6]) was -52.31 U/L and the “absolute reticulocyte count LS mean change from baseline” value (patients with PNH [1]; [6]) was -152.59 × 10^9 cells/L. For the same substance, the “LDH LS mean change from baseline” value (patients with PNH [1]; [7]) was -73.14 U/L, the “absolute reticulocyte count LS mean change from baseline” value (patients with PNH [1]; [7]) was -147.17 × 10^9 cells/L and the “adjusted mean hemoglobin change from baseline” value (patients with PNH [1]; week 16, all patients, baseline 8.7 g/dL, post-transfusion data excluded) was 2.4 g/dL. For the same substance, the “proportion of patients achieving hemoglobin normalization” value (patients with PNH [1]; [8]) was 34%, the “proportion of patients achieving ≥2 g/dL improvement in hemoglobin” value (patients with PNH [1]; [8]) was 61% and the “proportion of patients achieving hemoglobin stabilization” value (patients with PNH [1]; week 16, censored for transfusion, avoidance of >1 g/dL decrease from baseline) was 85%. For the same substance, the “adjusted mean hemoglobin change from baseline” value (patients with PNH [1]; week 16, fewer than 4 transfusions within 12 months prior to Day -28, baseline 8.9 g/dL) was 2.97 g/dL, the indirect bilirubin level (patients with PNH [1]; week 16, including post-transfusion data) was 13.8 µmol/L and the “non-inferiority to eculizumab in the change from baseline in LDH” value (patients with PNH [1]; week 16, margin 20) was “did not demonstrate non-inferiority”. For the same substance, the “mean FACIT-fatigue score” value (patients with PNH [1]; week 16, observed data, baseline 32.2 (pegcetacoplan), 31.6 (eculizumab)) was 41.8 (SD 9.61), the “improvement in adjusted means of hemoglobin versus eculizumab” value (patients with PNH [1]; week 16, p<0.0001, MMRM) was 3.8 g/dL and the “LDH LS mean change from baseline” value (patients with PNH [1]; [9]) was -54.99 U/L. The “absolute reticulocyte count LS mean change from baseline” value (patients with PNH [1]; [9]) was -124.75 × 10^9 cells/L, the “LDH LS mean change from baseline” value (patients with PNH [1]; [10]) was -41.96 U/L and the “absolute reticulocyte count LS mean change from baseline” value (patients with PNH [1]; [10]) was -137.28 × 10^9 cells/L. For the same substance, the “LDH adjusted mean change from baseline” value (patients with PNH [1]; week 16, baseline 258 U/L (pegcetacoplan), 309 U/L (eculizumab)) was -15 U/L, the “transfusion avoidance, adjusted risk difference versus eculizumab” value (patients with PNH [1]; ≥4 transfusions group, 95% CI 64.2%-98.5%) was 81.4% and the “C3 loading on Type III RBCs” value (PNH Type II + III RBCs) was “decreased”. The “PNH clone size (Type II + III)” value (PNH Type II + III RBCs) was “increased”, the “comparative effectiveness versus ravulizumab (MAIC, anchored on eculizumab)” value [2] was “improvement in transfusion avoidance, hemoglobin stabilization, and fatigue, and a reduction in the total number of units of PRBCs transfused” and the “All Infections” value (patients with PNH [3]) was 12 (29.3) n(%). For the same substance, the Sepsis (patients with PNH [3]) was 0 n(%), the cases of meningitis (patients with PNH [4]) was “No cases” and the diarrhea (patients with PNH [4]) was 21%. For the same substance, the “discontinuations due to hemolysis” value (patients with PNH [4]) was “five”, the “hemolysis (adverse event)” value (patients with PNH [4]) was 24% and the injection site reactions (patients with PNH [4]) was 36%. For the same substance, the “patients who experienced a serious adverse event” value (patients with PNH [4]; 24 of 80 pegcetacoplan monotherapy-treated patients) was 30%, the deaths (patients with PNH [4]; due to COVID-19, unrelated to study treatment) was “One death” and the “SAEs assessed to be possibly related to study treatment” value (patients with PNH [4]; five of the SAEs) was 6%. For the same substance, the “patients who discontinued due to adverse events” value (patients with PNH [4]; twelve out of 80 patients) was 15%, the “LDH increase in subjects discontinuing due to hemolysis” value (patients with PNH [5]; 3 subjects of the pegcetacoplan group) was 3-11 × ULN and the “hemolysis (adverse event)” value (patients with PNH [5]; 16-week period, four patients pegcetacoplan, nine patients eculizumab) was 9.8%. The “patients who experienced a serious adverse event” value (patients with PNH [5]; 16-week period, seven of 41 pegcetacoplan, 6 of 39 eculizumab) was 17.1%, the “Abdominal Pain (adverse event)” value (patients with PNH [5]; 16-week randomized period) was 5 (12.2) n(%) and the “Any TEAE” value (patients with PNH [5]; 16-week randomized period) was 36 (87.8) n(%). For the same substance, the “Back Pain (adverse event)” value (patients with PNH [5]; 16-week randomized period) was 3 (7.3) n(%), the “Diarrhea (adverse event)” value (patients with PNH [5]; 16-week randomized period) was 9 (22.0) n(%) and the “Discontinuations due to AE” value (patients with PNH [5]; 16-week randomized period) was 3 (7.3) n(%). The “Dizziness (adverse event)” value (patients with PNH [5]; 16-week randomized period) was 1 (2.4) n(%), the “Headache (adverse event)” value (patients with PNH [5]; 16-week randomized period) was 3 (7.3) n(%) and the Meningitis (patients with PNH [5]; 16-week randomized period) was 0 n(%). For the same substance, the “Serious AE” value (patients with PNH [5]; 16-week randomized period) was 7 (17.1) n(%), the cases of meningitis (patients with PNH [5]; 16-week randomized period) was “No cases” and the deaths (patients with PNH [5]; 16-week randomized period) was “no deaths”. For the same substance, the “fatigue (adverse event)” value (patients with PNH [5]; 16-week randomized period) was 2 (4.9) n(%), the “hemolysis (adverse event)” value (patients with PNH [5]; 16-week randomized period) was 4 (9.8) n(%) and the “injection site reactions” value (patients with PNH [5]; 16-week randomized period) was 15 (35.6) n(%). For the same substance, the tolerability (patients with PNH [5]; 16-week randomized period) was “generally well tolerated”, the diarrhea (patients with PNH [5]; [11]) was 22.0% and the “fatigue (adverse event)” value (patients with PNH [5]; [11]) was 4.9%. For the same substance, the headache (patients with PNH [5]; [11]) was 7.3%, the injection site reactions (patients with PNH [5]; [11]) was 36.6% and the “Adverse Events as primary reason for withdrawal from study treatment (all reported as hemolysis)” value (patients with PNH [5]; through week 16) was 3 (7.3) n (%).

From patent publication US20230076527A1, “TREATMENT OF PAROXYSMAL NOCTURNAL HEMOGLOBINURIA” (Apellis Pharmaceuticals, Inc., priority 2020, published 2023)
